Test results reported in patent US20220089592A1, “IMIDAZO[1,2-A]PYRIDINYL DERIVATIVES AS IRAK4 INHIBITORS” (priority 2019, published 2022).

target: T1, IRAK4 (Homo sapiens, UniProt Q9NWZ3); experiment: 2-hour 10 μM ATP Biochemical Assay (MesoScale Detection format; IRAK4 phosphorylation of biotin labeled IRAK1 activation loop peptide); conditions: IRAK4 MSD BIOCHEMICAL (10 μM ATP) IC50 (μM), 1 nM IRAK4, 2 hours
T1 sequence (Q9NWZ3 1-460): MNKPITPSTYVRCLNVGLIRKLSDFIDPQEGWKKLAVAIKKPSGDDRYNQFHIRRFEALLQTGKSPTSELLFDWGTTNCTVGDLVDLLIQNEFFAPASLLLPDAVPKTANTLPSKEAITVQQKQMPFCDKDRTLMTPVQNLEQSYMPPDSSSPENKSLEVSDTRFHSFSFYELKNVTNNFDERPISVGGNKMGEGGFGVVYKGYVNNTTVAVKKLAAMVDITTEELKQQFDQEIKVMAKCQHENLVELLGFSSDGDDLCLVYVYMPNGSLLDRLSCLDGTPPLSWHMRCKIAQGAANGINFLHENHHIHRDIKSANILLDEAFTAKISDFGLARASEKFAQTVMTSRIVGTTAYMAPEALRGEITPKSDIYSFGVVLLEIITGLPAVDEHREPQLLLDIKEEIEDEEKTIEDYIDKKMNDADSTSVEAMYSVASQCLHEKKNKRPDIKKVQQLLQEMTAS
Protocol: The 2-hour 10 μM ATP Biochemical Assay employs a MesoScale Detection (MSD) format.
The activity is quenched with 11 μl of 70 mM EDTA, pH 8.
To detect the phosphorylated biotinylated peptide substrate, 30 μl of the quenched reaction mixture is added to equivalent wells of a 384 well streptavidin coated MesoScale plate (Meso Scale Discovery #L21SA-1). After a 1 hour incubation of the plate for 1 hour at room temperature with gentle mixing, the plate wells are washed 3 times with 50 mM Tris, pH 7.5, 150 mM NaCl, 0.02% Tween-20.
A 25 μl volume of 1:500 anti-P-Threonine Rabbit polyclonal Antibody plus 1:500 Goat-anti-Rabbit Sulfo Tag Antibody (Meso Scale Discovery R32AB-1) in 50 mM Tris, pH 7.5, 150 mM NaCl, 0.02% Tween-20 plus 2% BSA is then added to each well. After a 1-hour incubation of the plate for 1 hour at room temperature with gentle mixing, the plate wells are washed, 3 times with 50 mM Tris, pH 7.5, 150 mM NaCl, 0.02% Tween-20. A 40 μl volume of 2×MSD Read Buffer (Meso Scale Discovery R92TC-1) is added to each well, and the plate is read immediately in an MSD Plate Reader (Meso Scale Discovery).

Row | IC50 [µM] | Compound
1 | 0.002 | COc1cc(NC(=O)c2cccc(C(F)F)n2)cn2cc(C34COC(C)(C3)C4)nc12 [Example 508, 6-(difluoromethyl)-N-(8-methoxy-2-(1-methyl-2-oxabicyclo[2.1.1]hexan-4-yl)imidazo[1,2-a]pyridin-6-yl)picolinamide 2,2,2-trifluoroacetate]
2 | 0.064 | CCOc1cc2nc(CC)cn2cc1NC(=O)c1cccc(NC(C)=O)n1 [Example 32, 6-acetamido-N-(7-ethoxy-2-ethylimidazo[1,2-a]pyridin-6-yl)picolinamide]
3 | 0.11 | CCOc1cc2nc(C3CC3)cn2cc1NC(=O)c1cc2ncccn2n1 [Example 53, N-(2-cyclopropyl-7-ethoxyimidazo[1,2-a]pyridin-6-yl)pyrazolo[1,5-a]pyrimidine-2-carboxamide]
4 | 0.001 | CC(C)Oc1cc2nc(C3CCOCC3)cn2cc1NC(=O)c1cccc(C(F)F)n1 [Example 167, 6-(difluoromethyl)-N-(7-isopropoxy-2-(tetrahydro-2H-pyran-4-yl)imidazo[1,2-a]pyridin-6-yl)picolinamide]
5 | 0.35 | CCOc1cc2nc(C(=O)N3CCOCC3)cn2cc1NC(=O)c1cccc(C(F)F)n1 [Example 126, 6-(difluoromethyl)-N-(7-ethoxy-2-(morpholine-4-carbonyl)imidazo[1,2-a]pyridin-6-yl)picolinamide]
6 | 0.015 | COc1cc(NC(=O)c2cccc(C(F)F)n2)cn2cc(C3CC3(F)F)nc12 (single isomer, unassigned) [Example 513, N-(2-(2,2-difluorocyclopropyl)-8-methoxyimidazo[1,2-a]pyridin-6-yl)-6-(difluoromethyl)picolinamide]
7 | 0.66 | CCOc1cc2nc(C3CC3)cn2cc1NC(=O)c1cccnc1OCC(F)(F)F [Example 71, N-(2-cyclopropyl-7-ethoxyimidazo[1,2-a]pyridin-6-yl)-2-(2,2,2-trifluoroethoxy)nicotinamide]
8 | 0.031 | O=C(Nc1cn2cc(C3CCOCC3)nc2cc1F)c1cccc(C(F)F)n1 [Example 293, 6-(difluoromethyl)-N-(7-fluoro-2-(tetrahydro-2H-pyran-4-yl)imidazo[1,2-a]pyridin-6-yl)picolinamide]
9 | 0.19 | CC(COc1cc2nc(C3CC3)cn2cc1NC(=O)c1cccc(C(F)F)n1)n1ccccc1=O (stereo not drawn) [Example 6, N-(2-cyclopropyl-7-(2-(2-oxopyridin-1(2H)-yl)propoxy)imidazo[1,2-a]pyridin-6-yl)-6-(difluoromethyl)picolinamide]
10 | 0.004 | COc1cc(NC(=O)c2cccc(C(F)F)n2)cn2cc(C34CC(C(F)F)(C3)C4)nc12 [Example 512, 6-(difluoromethyl)-N-(2-(3-(difluoromethyl)bicyclo[1.1.1]pentan-1-yl)-8-methoxyimidazo[1,2-a]pyridin-6-yl)picolinamide 2,2,2-trifluoroacetate]
11 | 0.076 | O=C(Nc1cnc2nc(C3CC3)cn2c1)c1cccc(C(F)(F)F)n1 [Example 92, N-(2-cyclopropylimidazo[1,2-a]pyrimidin-6-yl)-6-(trifluoromethyl)picolinamide]
12 | 0.34 | CCOc1cc2nc(CC)cn2cc1NC(=O)c1ccc(F)cc1F [Example 40, N-(7-ethoxy-2-ethylimidazo[1,2-a]pyridin-6-yl)-2,4-difluorobenzamide]
13 | 1.3 | CCOc1cc2nc(CC)cn2cc1NC(=O)c1ccc2c(c1)OCC2 [Example 42, N-(7-ethoxy-2-ethylimidazo[1,2-a]pyridin-6-yl)-2,3-dihydrobenzofuran-6-carboxamide]
14 | 0.003 | CCOc1cc2nc(C3CN(CC(F)F)C3)cn2cc1NC(=O)c1ccn(CC(F)F)n1 [Example 291, 1-(2,2-difluoroethyl)-N-(2-(1-(2,2-difluoroethyl)azetidin-3-yl)-7-ethoxyimidazo[1,2-a]pyridin-6-yl)-1H-pyrazole-3-carboxamide]
15 | 2 | CCOc1cc2nc(CC)cn2cc1NC(=O)c1nc(C)c(C)s1 [Example 48, N-(7-ethoxy-2-ethylimidazo[1,2-a]pyridin-6-yl)-4,5-dimethylthiazole-2-carboxamide]
16 | 0.17 | CCc1cn2cc(NC(=O)c3cccc(C(F)F)n3)cc(F)c2n1 [Example 76, 6-(difluoromethyl)-N-(2-ethyl-8-fluoroimidazo[1,2-a]pyridin-6-yl)picolinamide]
17 | 0.001 | CCOc1cc2nc(CC3CCOC3)cn2cc1NC(=O)c1coc(-c2cnn(C)c2)n1 (single isomer, unassigned) [Example 252, N-(7-ethoxy-2-((tetrahydrofuran-3-yl)methyl)imidazo[1,2-a]pyridin-6-yl)-2-(1-methyl-1H-pyrazol-4-yl)oxazole-4-carboxamide]
18 | 0.004 | COc1cc(NC(=O)c2cccc(C(F)F)n2)cn2cc(CC3CCOCC3)nc12 [Example 506, 6-(difluoromethyl)-N-(8-methoxy-2-((tetrahydro-2H-pyran-4-yl)methyl)imidazo[1,2-a]pyridin-6-yl)picolinamide]
19 | 0.68 | CCOc1cc2nc3c(n2cc1NC(=O)c1cccc(C(F)(F)F)n1)CNCC3 [Example 64, N-(7-ethoxy-1,2,3,4-tetrahydroimidazo[1,2-a:5,4-c′]dipyridin-8-yl)-6-(trifluoromethyl)picolinamide]
20 | 0.028 | CCOc1cc2nc(C3CC3)cn2cc1NC(=O)c1cncc(C(F)(F)F)n1 [Example 120, N-(2-cyclopropyl-7-ethoxyimidazo[1,2-a]pyridin-6-yl)-6-(trifluoromethyl)pyrazine-2-carboxamide]
21 | 2.3 | CCOc1cc2nc(CC3CCOC3)cn2cc1NC(=O)c1cn(C)cn1 (stereo not drawn) [Example 157, N-(7-ethoxy-2-((tetrahydrofuran-3-yl)methyl)imidazo[1,2-a]pyridin-6-yl)-1-methyl-1H-imidazole-4-carboxamide]
22 | 0.023 | O=C(Nc1cc(OCc2ccccc2)c2nc(C3CCOCC3)cn2c1)c1cccc(C(F)(F)F)n1 [Example 103, N-(8-(benzyloxy)-2-(tetrahydro-2H-pyran-4-yl)imidazo[1,2-a]pyridin-6-yl)-6-(trifluoromethyl)picolinamide]
23 | 0.001 | CCOc1cc2nc(C34CC(C(C)(C)O)(C3)C4)cn2cc1NC(=O)c1cccc(C(F)F)n1 [Example 129, 6-(difluoromethyl)-N-(7-ethoxy-2-(3-(2-hydroxypropan-2-yl)bicyclo[1.1.1]pentan-1-yl)imidazo[1,2-a]pyridin-6-yl)picolinamide]
24 | 0.001 | O=C(Nc1cn2cc(C3CCOCC3)nc2cc1OC1CCCC1)c1cccc(C(F)F)n1 [Example 175, N-(7-(cyclopentyloxy)-2-(tetrahydro-2H-pyran-4-yl)imidazo[1,2-a]pyridin-6-yl)-6-(difluoromethyl)picolinamide]
25 | 0.26 | CCOc1cc2nc(CC)cn2cc1NC(=O)c1nc(C(F)(F)F)ccc1F [Example 36, N-(7-ethoxy-2-ethylimidazo[1,2-a]pyridin-6-yl)-3-fluoro-6-(trifluoromethyl)picolinamide]
26 | 0.37 | O=C(Nc1cn2cc(C3CCOCC3)nc2cn1)c1cnn(C(F)F)c1 [Example 162, 1-(difluoromethyl)-N-(2-(tetrahydro-2H-pyran-4-yl)imidazo[1,2-a]pyrazin-6-yl)-1H-pyrazole-4-carboxamide]
27 | 0.018 | CCOc1cc2nc(C3CC3)cn2cc1NC(=O)c1cccc(C2(O)CCC2)n1 [Example 132, N-(2-cyclopropyl-7-ethoxyimidazo[1,2-a]pyridin-6-yl)-6-(1-hydroxycyclobutyl)picolinamide]
